According to ChEMBL document CHEMBL1201862, “PubChem BioAssay data set” (2004):
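Test compounds were applied to cells in 96-well plates for 48 hours at 5 doses. Here, GI50 denotes the concentration required for 50% inhibition of growth.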 Activity calls are given as the source filed them. Rule as the data show it: active = GI50 up to about 1.1 µM and inactive = higher.

Assays:
Assay in all cases: DTP human tumour cell line panel, 48 h
DLD-1 = tested on: DLD-1
DMS-114 = tested on: DMS-114
KM-20L2 = tested on: KM-20L2
LXFL 529 = tested on: LXFL 529
M19-MEL = tested on: M19-MEL
XF498 = tested on: XF498
DMS-273 = tested on: DMS-273
RXF 631 = tested on: RXF 631
HOP-18 = tested on: HOP-18

Structure (SMILES)	GI50 (DLD-1)	GI50 (DMS-114)	GI50 (KM-20L2)	GI50 (LXFL 529)	GI50 (M19-MEL)	GI50 (XF498)	GI50 (DMS-273)	GI50 (RXF 631)	GI50 (HOP-18)
COc1ccc(C=C2C(=O)OC(C)(C)OC2=O)cc1OC	> 100 µM (inactive)	> 100 µM (inactive)	> 100 µM (inactive)	> 100 µM (inactive)	> 100 µM (inactive)	> 100 µM (inactive)	–	–	–
Cc1ccc(NC(=O)C(=O)Cc2nc3ccccc3o2)c(C)c1	> 100 µM (inactive)	> 100 µM (inactive)	> 100 µM (inactive)	> 100 µM (inactive)	> 100 µM (inactive)	> 100 µM (inactive)	> 100 µM (inactive)	> 100 µM (inactive)	–
O=[PH](O)c1ccsc1	> 100 µM (inactive)	> 100 µM (inactive)	> 100 µM (inactive)	> 100 µM (inactive)	> 100 µM (inactive)	–	> 100 µM (inactive)	> 100 µM (inactive)	> 100 µM (inactive)
COc1ccc(/C=C/CN(C)CCc2ccccc2)cc1OC	–	77.4 µM (inactive)	42.3 µM (inactive)	62.1 µM (inactive)	> 100 µM (inactive)	–	> 100 µM (inactive)	–	–
CNC(=O)CN(CC(N)=O)C(=O)NC	> 100 µM (inactive)	–	> 100 µM (inactive)	> 100 µM (inactive)	> 100 µM (inactive)	> 100 µM (inactive)	> 100 µM (inactive)	> 100 µM (inactive)	–
O=C(CCc1n[nH]c(=S)o1)Nc1cc(Cl)c(Cl)cc1Cl	29 µM (inactive)	41.3 µM (inactive)	45.8 µM (inactive)	44.8 µM (inactive)	> 100 µM (inactive)	–	24.3 µM (inactive)	44.6 µM (inactive)	58.7 µM (inactive)
O=C1CCC2CCc3cccc4oc1c2c34 (stereo not given)	> 100 µM (inactive)	> 100 µM (inactive)	> 100 µM (inactive)	> 100 µM (inactive)	> 100 µM (inactive)	> 100 µM (inactive)	> 100 µM (inactive)	–	> 100 µM (inactive)
C=C1C(C(=O)O)C1C(=O)O (stereo not given)	> 100 µM (inactive)	> 100 µM (inactive)	> 100 µM (inactive)	–	> 100 µM (inactive)	> 100 µM (inactive)	> 100 µM (inactive)	–	> 100 µM (inactive)
CCOc1cc(/C=C/C=C/C=C/c2ccc(N(C)C)cc2)[s+]c2ccccc12	–	5.61 µM (inactive)	–	16.3 µM (inactive)	25 µM (inactive)	23.8 µM (inactive)	73.8 µM (inactive)	> 100 µM (inactive)	–
O=C(CN(c1ccccc1)c1ccccc1)n1nnc2ccccc21	76.2 µM (inactive)	29.3 µM (inactive)	36.4 µM (inactive)	70.6 µM (inactive)	20.6 µM (inactive)	–	39.9 µM (inactive)	–	–
O=C1NCCS(=O)(=O)N2CCC[C@@H]12	> 100 µM (inactive)	> 100 µM (inactive)	> 100 µM (inactive)	> 100 µM (inactive)	> 100 µM (inactive)	–	–	> 100 µM (inactive)	> 100 µM (inactive)
COCCNC(=O)C1C(=O)C(=O)N(CCOC)C1=O (stereo not given)	> 100 µM (inactive)	> 100 µM (inactive)	> 100 µM (inactive)	> 100 µM (inactive)	> 100 µM (inactive)	–	> 100 µM (inactive)	> 100 µM (inactive)	> 100 µM (inactive)
CC(C)CC(NC(=O)OC(C)(C)C)C(=O)Nc1ccc(Nc2nc(F)nc(-c3c4ccccc4c4n3CCS4)n2)cc1 (stereo not given)	20 µM (inactive)	20.1 µM (inactive)	18.3 µM (inactive)	19.5 µM (inactive)	–	25.2 µM (inactive)	16.9 µM (inactive)	–	24.4 µM (inactive)
O=C(O)CCSC(=O)Nc1cccc([N+](=O)[O-])c1	72.1 µM (inactive)	> 100 µM (inactive)	–	> 100 µM (inactive)	–	–	> 100 µM (inactive)	–	–
COc1ccc2c(c1)CCN1C3=C(CCC3)C(=O)C[C@@H]21	–	81.7 µM (inactive)	> 100 µM (inactive)	> 100 µM (inactive)	> 100 µM (inactive)	15.9 µM (inactive)	> 100 µM (inactive)	–	> 100 µM (inactive)
CCOc1ccc([Se][Se]c2ccc(OCC)cc2)cc1	> 100 µM (inactive)	20.7 µM (inactive)	> 100 µM (inactive)	26 µM (inactive)	25.6 µM (inactive)	–	79.1 µM (inactive)	44.5 µM (inactive)	> 100 µM (inactive)
COC(=O)C(CCCCCCCC(C(=O)OC)C1=Nc2nnc(N)n2C1=O)C1=Nc2nnc(N)n2C1=O (stereo not given)	> 100 µM (inactive)	> 100 µM (inactive)	> 100 µM (inactive)	> 100 µM (inactive)	26.1 µM (inactive)	> 100 µM (inactive)	> 100 µM (inactive)	> 100 µM (inactive)	> 100 µM (inactive)
CSc1ncnc2c1CCN2	–	> 100 µM (inactive)	–	> 100 µM (inactive)	> 100 µM (inactive)	–	–	–	–
COC(=O)C(=O)C(C(=O)OC)C(=O)C(=O)Nc1cc(Cl)c(C)cc1S(=O)(=O)O (stereo not given)	> 100 µM (inactive)	> 100 µM (inactive)	> 100 µM (inactive)	> 100 µM (inactive)	> 100 µM (inactive)	> 100 µM (inactive)	> 100 µM (inactive)	–	> 100 µM (inactive)
O=C(Nc1ccc(Cl)cc1)c1cccc([N+](=O)[O-])c1O	3.18 µM (inactive)	3.1 µM (inactive)	4.43 µM (inactive)	3.1 µM (inactive)	2.8 µM (inactive)	2.64 µM (inactive)	3.13 µM (inactive)	–	0.53 µM (active)
O=C(COc1ccccc1Cl)N1N=C(c2ccc(Cl)cc2)CC1(O)c1ccccc1 (stereo not given)	> 100 µM (inactive)	–	> 100 µM (inactive)	> 100 µM (inactive)	> 100 µM (inactive)	> 100 µM (inactive)	> 100 µM (inactive)	> 100 µM (inactive)	–
COc1cc2c(Cc3cc(OCc4ccccc4)ccc3N)nccc2c(OC)c1OC	> 10 µM (inactive)	> 10 µM (inactive)	> 10 µM (inactive)	> 10 µM (inactive)	> 10 µM (inactive)	> 10 µM (inactive)	> 10 µM (inactive)	6.55 µM (inactive)	> 10 µM (inactive)
COc1ccc(C(=O)O/N=C2/CCCCC2CN(C)C)cc1 (stereo not given)	> 100 µM (inactive)	–	> 100 µM (inactive)	> 100 µM (inactive)	> 100 µM (inactive)	–	> 100 µM (inactive)	> 100 µM (inactive)	> 100 µM (inactive)
COC(=O)C12C3C4C5(C(=O)OC)C(C1C35C(=O)N(C(C)C)C(C)C)C42C(=O)N(C(C)C)C(C)C (stereo not given)	> 25.6 µM (inactive)	> 29.9 µM (inactive)	> 50 µM (inactive)	> 50 µM (inactive)	> 47.8 µM (inactive)	–	> 30.8 µM (inactive)	–	> 50 µM (inactive)
COc1cc2c(cc1O)[C@H](C)C(c1ccccc1OC)O2 (stereo not given in full)	4.75 µM (inactive)	2.8 µM (inactive)	5.07 µM (inactive)	8 µM (inactive)	3.77 µM (inactive)	5.19 µM (inactive)	2.67 µM (inactive)	–	> 100 µM (inactive)
O=C(Cc1ccccc1F)NC1=C(Cl)C(=O)c2ccccc2C1=O	–	0.21 µM (active)	8.43 µM (inactive)	0.405 µM (active)	0.461 µM (active)	0.706 µM (active)	1.52 µM (inactive)	–	0.668 µM (active)
CCCN(CCC)C(=O)Cc1c2n(c3ccccc13)CCCc1ccccc1-2	13.6 µM (inactive)	11.7 µM (inactive)	14.4 µM (inactive)	13.6 µM (inactive)	14.8 µM (inactive)	15.1 µM (inactive)	11 µM (inactive)	–	16.3 µM (inactive)
CC1=C2C(=CO[C@H](C)[C@H]2C)C(O)=C(C(=O)O)C1=O [CITRININ]	18.2 µM (inactive)	11.5 µM (inactive)	23.8 µM (inactive)	–	24.5 µM (inactive)	5.55 µM (inactive)	44 µM (inactive)	–	15.2 µM (inactive)
COc1cc2ccc(=O)oc2cc1O [SCOPOLETIN]	83.2 µM (inactive)	28.5 µM (inactive)	187 µM (inactive)	–	72.4 µM (inactive)	63.7 µM (inactive)	36.3 µM (inactive)	–	150 µM (inactive)
